Data taken from ChEMBL document CHEMBL5385907, “Proline-Hinged α-Helical Peptides Sensitize Gram-Positive Antibiotics, Expanding Their Physicochemical Properties to Be Used as Gram-Negative Antibiotics” (J Med Chem, 2024).
≈ marks a conversion by molar mass, not a printed value. Calls of active or inactive are those of the source. The calls are words filed in the database; no cut-off is given here. Residues, ends and D or L forms follow the SMILES beside them.

Legend:
Escherichia coli [1] = experiment: Antibacterial activity against Escherichia coli ATCC 25922 assessed as inhibition of bacterial growth incubated for 18 hrs by two fold serial dilution assay; assay type: functional
Acinetobacter baumannii [2] = experiment: Antibacterial activity against Acinetobacter baumannii ATCC 17978 assessed as inhibition of bacterial growth incubated for 18 hrs by two fold serial dilution assay; assay type: functional
Klebsiella pneumoniae [3] = experiment: Antibacterial activity against Klebsiella pneumoniae ATCC 700603 assessed as inhibition of bacterial growth incubated for 18 hrs by two fold serial dilution assay; assay type: functional
[4] = Hemolytic activity in human blood assessed as hemolysis incubated for 6 hrs by microplate reader analysis; assay type: toxicity, tissue-based
[5] = Hydrophobicity of the compound assessed as retention time by reversed-phase HPLC analysis; assay type: physicochemical
Escherichia coli [6] = experiment: Potentiation of erythromycin induced antibacterial activity against Escherichia coli ATCC 25922 assessed as decrease in bacterial growth at 0.4 uM incubated for 18 hrs in presence of erythromycin by two fold serial dilution assay; assay type: functional, organism-based
Escherichia coli [7] = experiment: Potentiation of fusidic acid induced antibacterial activity against Escherichia coli ATCC 25922 assessed as decrease in bacterial growth at 0.4 uM incubated for 18 hrs in presence of fusidic acid by two fold serial dilution assay; assay type: functional, organism-based
Escherichia coli [8] = experiment: Potentiation of novobiocin induced antibacterial activity against Escherichia coli ATCC 25922 assessed as decrease in bacterial growth at 0.4 uM incubated for 18 hrs in presence of novobiocin by two fold serial dilution assay; assay type: functional, organism-based
Acinetobacter baumannii [9] = experiment: Potentiation of erythromycin induced antibacterial activity against Acinetobacter baumannii ATCC 17978 assessed as decrease in bacterial growth at 0.4 uM incubated for 18 hrs in presence of erythromycin by two fold serial dilution assay; assay type: functional, organism-based
Acinetobacter baumannii [10] = experiment: Potentiation of fusidic acid induced antibacterial activity against Acinetobacter baumannii ATCC 17978 assessed as decrease in bacterial growth at 0.4 uM incubated for 18 hrs in presence of fusidic acid by two fold serial dilution assay; assay type: functional, organism-based
Acinetobacter baumannii [11] = experiment: Potentiation of novobiocin induced antibacterial activity against Acinetobacter baumannii ATCC 17978 assessed as decrease in bacterial growth at 0.4 uM incubated for 18 hrs in presence of novobiocin by two fold serial dilution assay; assay type: functional, organism-based
Klebsiella pneumoniae [12] = experiment: Potentiation of erythromycin induced antibacterial activity against Klebsiella pneumoniae ATCC 700603 assessed as decrease in bacterial growth at 0.4 uM incubated for 18 hrs in presence of erythromycin by two fold serial dilution assay; assay type: functional, organism-based
Klebsiella pneumoniae [13] = experiment: Potentiation of fusidic acid induced antibacterial activity against Klebsiella pneumoniae ATCC 700603 assessed as decrease in bacterial growth at 0.4 uM incubated for 18 hrs in presence of fusidic acid by two fold serial dilution assay; assay type: functional, organism-based
Klebsiella pneumoniae [14] = experiment: Potentiation of novobiocin induced antibacterial activity against Klebsiella pneumoniae ATCC 700603 assessed as decrease in bacterial growth at 0.4 uM incubated for 18 hrs in presence of novobiocin by two fold serial dilution assay; assay type: functional, organism-based

| Compound | MIC (Escherichia coli [1]) | MIC (Acinetobacter baumannii [2]) | MIC (Klebsiella pneumoniae [3]) | MHC10 [4] | Retention_time [5] | Activity (Escherichia coli [6]) | Activity (Escherichia coli [7]) | Activity (Escherichia coli [8]) | Activity (Acinetobacter baumannii [9]) | Activity (Acinetobacter baumannii [10]) | Activity (Acinetobacter baumannii [11]) | Activity (Klebsiella pneumoniae [12]) | Activity (Klebsiella pneumoniae [13]) | Activity (Klebsiella pneumoniae [14]) |
| --- | --- | --- | --- | --- | --- | --- | --- | --- | --- | --- | --- | --- | --- | --- |
| CC(=O)N[C@@H](CCCCN)C(=O)N[C@@H](CCCCN)C(=O)N[C@@H](CC(C)C)C(=O)N[C@@H](CC(C)C)C(=O)N[C@@H](CCCCN)C(=O)N[C@@H](CC(C)C)C(=O)N[C@@H](CC(C)C)C(=O)N[C@@H](CCCCN)C(=O)N[C@@H](CCCCN)C(=O)N1CCC[C@H]1C(=O)N[C@@H](CC(C)C)C(=O)N[C@@H](CCCCN)C(=O)N[C@@H](CC(C)C)C(=O)N[C@@H](CC(C)C)C(=O)N[C@@H](CCCCN)C(N)=O | > 80 µM | 10 µM (≈ 18.5 µg/mL) | > 80 µM | > 160 µM | 18.2 min | Active | Active | Active | Active | Active | Active | Active | Active | Active |
| CCCC(=O)N[C@@H](CC(N)=O)C(=O)N[C@@H](Cc1c[nH]cn1)C(=O)N[C@@H](CCCCN)C(=O)N[C@@H](CCCCN)C(=O)N[C@@H](C)C(=O)N[C@@H](CC(C)C)C(=O)N[C@@H](CCCCN)C(=O)N[C@@H](CC(C)C)C(=O)N[C@@H](C)C(=O)N[C@@H](CCCCN)C(=O)N[C@@H](CCCCN)C(=O)N1CCC[C@H]1C(=O)N[C@@H](CC(C)C)C(=O)N[C@@H](CCCCN)C(=O)N[C@@H](CC(C)C)C(=O)N[C@@H](CC(C)C)C(=O)N[C@@H](CCCCN)C(=O)N[C@@H](CS)C(N)=O (HELM PEPTIDE1{[CCCC(=O)[*:2]].N.H.K.K.A.L.K.L.A.K.K.P.L.K.L.L.K.C.[am]}$$$$V2.0) | > 80 µM | > 80 µM | > 80 µM | > 160 µM | 16.1 min |  |  |  |  |  |  |  |  |  |
| CCCCCC(=O)N[C@@H](CCCCN)C(=O)N[C@@H](CCCCN)C(=O)N[C@@H](C)C(=O)N[C@@H](CC(C)C)C(=O)N[C@@H](CCCCN)C(=O)N[C@@H](CC(C)C)C(=O)N[C@@H](C)C(=O)N[C@@H](CCCCN)C(=O)N[C@@H](CCCCN)C(=O)N1CCC[C@H]1C(=O)N[C@@H](CC(C)C)C(=O)N[C@@H](CCCCN)C(=O)N[C@@H](CC(C)C)C(=O)N[C@@H](CC(C)C)C(=O)N[C@@H](CCCCN)C(N)=O (HELM PEPTIDE1{[CCCCCC(=O)[*:2]].K.K.A.L.K.L.A.K.K.P.L.K.L.L.K.[am]}$$$$V2.0) | > 80 µM | 80 µM (≈ 145 µg/mL) | > 80 µM | > 160 µM | 17.1 min |  |  |  |  |  |  |  |  |  |
| CCCCCCCCCC(=O)N[C@@H](CCCCN)C(=O)N[C@@H](CCCCN)C(=O)N[C@@H](C)C(=O)N[C@@H](CC(C)C)C(=O)N[C@@H](CCCCN)C(=O)N[C@@H](CC(C)C)C(=O)N[C@@H](C)C(=O)N[C@@H](CCCCN)C(=O)N[C@@H](CCCCN)C(=O)N1CCC[C@H]1C(=O)N[C@@H](CC(C)C)C(=O)N[C@@H](CCCCN)C(=O)N[C@@H](CC(C)C)C(=O)N[C@@H](CC(C)C)C(=O)N[C@@H](CCCCN)C(N)=O (HELM PEPTIDE1{[CCCCCCCCCC(=O)[*:2]].K.K.A.L.K.L.A.K.K.P.L.K.L.L.K.[am]}$$$$V2.0) | 40 µM (≈ 74.9 µg/mL) | 5 µM (≈ 9.37 µg/mL) | > 80 µM | > 160 µM | 19.4 min |  |  |  |  |  |  |  |  |  |
| CCCCCCCCCCCC(=O)N[C@@H](CCCCN)C(=O)N[C@@H](CCCCN)C(=O)N[C@@H](C)C(=O)N[C@@H](CC(C)C)C(=O)N[C@@H](CCCCN)C(=O)N[C@@H](CC(C)C)C(=O)N[C@@H](C)C(=O)N[C@@H](CCCCN)C(=O)N[C@@H](CCCCN)C(=O)N1CCC[C@H]1C(=O)N[C@@H](CC(C)C)C(=O)N[C@@H](CCCCN)C(=O)N[C@@H](CC(C)C)C(=O)N[C@@H](CC(C)C)C(=O)N[C@@H](CCCCN)C(N)=O (HELM PEPTIDE1{[CCCCCCCCCCCC(=O)[*:2]].K.K.A.L.K.L.A.K.K.P.L.K.L.L.K.[am]}$$$$V2.0) | 10 µM (≈ 19 µg/mL) | 2.5 µM (≈ 4.75 µg/mL) | 80 µM (≈ 152 µg/mL) | 160 µM | 20.4 min |  |  |  |  |  |  |  |  |  |
| CCCCCCCCCCCCCC(=O)N[C@@H](CCCCN)C(=O)N[C@@H](CCCCN)C(=O)N[C@@H](C)C(=O)N[C@@H](CC(C)C)C(=O)N[C@@H](CCCCN)C(=O)N[C@@H](CC(C)C)C(=O)N[C@@H](C)C(=O)N[C@@H](CCCCN)C(=O)N[C@@H](CCCCN)C(=O)N1CCC[C@H]1C(=O)N[C@@H](CC(C)C)C(=O)N[C@@H](CCCCN)C(=O)N[C@@H](CC(C)C)C(=O)N[C@@H](CC(C)C)C(=O)N[C@@H](CCCCN)C(N)=O (HELM PEPTIDE1{[CCCCCCCCCCCCCC(=O)[*:2]].K.K.A.L.K.L.A.K.K.P.L.K.L.L.K.[am]}$$$$V2.0) | 5 µM (≈ 9.65 µg/mL) | 1.3 µM (≈ 2.51 µg/mL) | 20 µM (≈ 38.6 µg/mL) | 53 µM | 21.7 min |  |  |  |  |  |  |  |  |  |
| CCCCCCCCCCCCCCCC(=O)N[C@@H](CCCCN)C(=O)N[C@@H](CCCCN)C(=O)N[C@@H](C)C(=O)N[C@@H](CC(C)C)C(=O)N[C@@H](CCCCN)C(=O)N[C@@H](CC(C)C)C(=O)N[C@@H](C)C(=O)N[C@@H](CCCCN)C(=O)N[C@@H](CCCCN)C(=O)N1CCC[C@H]1C(=O)N[C@@H](CC(C)C)C(=O)N[C@@H](CCCCN)C(=O)N[C@@H](CC(C)C)C(=O)N[C@@H](CC(C)C)C(=O)N[C@@H](CCCCN)C(N)=O (HELM PEPTIDE1{[CCCCCCCCCCCCCCCC(=O)[*:2]].K.K.A.L.K.L.A.K.K.P.L.K.L.L.K.[am]}$$$$V2.0) | 5 µM (≈ 9.79 µg/mL) | 1.3 µM (≈ 2.55 µg/mL) | 10 µM (≈ 19.6 µg/mL) | 5.9 µM | 22.9 min |  |  |  |  |  |  |  |  |  |
| NCC[C@H](O)C(=O)N[C@@H]1C[C@H](N)[C@@H](O[C@H]2O[C@H](CN)[C@@H](O)[C@H](O)[C@H]2O)[C@H](O)[C@H]1O[C@H]1O[C@H](CO)[C@@H](O)[C@H](N)[C@H]1O [AMIKACIN] | 5 µM (≈ 2.93 µg/mL) | 2.5 µM (≈ 1.46 µg/mL) | 2.5 µM (≈ 1.46 µg/mL) |  |  |  |  |  |  |  |  |  |  |  |
| Ac-AKLLKLLKKPLKLLK-NH2 | > 80 µM | 40 µM | > 80 µM | > 160 µM | 19.2 min | Active | Active | Active | Active | Active | Active | Active | Active | Active |
| Ac-KALLKLLKKPLKLLK-NH2 | > 80 µM | 20 µM | > 80 µM | > 160 µM | 19.4 min | Active | Active | Active | Active | Active | Active | Active | Active | Active |
| Ac-KKALKLAKKPLKLLK-NH2 | > 80 µM | > 80 µM | > 80 µM | > 160 µM | 15.3 min |  |  |  |  |  |  |  |  |  |
| Ac-KKALKLLKKPLKLLK-NH2 | > 80 µM | > 80 µM | > 80 µM | > 160 µM | 16.7 min | Active | Active | Active | Active | Active | Active | Active | Active | Active |
| Ac-KKLAKLLKKPLKLLK-NH2 | > 80 µM | 80 µM | > 80 µM | > 160 µM | 17.1 min | Active | Active | Active | Active | Active | Active | Active | Active | Active |
| Ac-KLLKLLKKPLKL-NH2 | > 80 µM | > 80 µM | > 80 µM | > 160 µM | 18 min |  |  |  |  |  |  |  |  |  |
| Ac-KLLKLLKKPLKLL-NH2 | > 80 µM | 20 µM | > 80 µM | > 160 µM | 19.4 min |  |  |  |  |  |  |  |  |  |
| Ac-KLLKLLKKPLKLLKK-NH2 | > 80 µM | 20 µM | > 80 µM | > 160 µM | 18.2 min |  |  |  |  |  |  |  |  |  |
| Ac-KLLKLLKKPLKLLKKL-NH2 | > 80 µM | 5 µM | 40 µM | > 160 µM | 19.7 min |  |  |  |  |  |  |  |  |  |
| Ac-LKKLLKLLKKPLKLLK-NH2 | > 10 µM | 1.3 µM | 2.5 µM | 53 µM | 20.1 min |  |  |  |  |  |  |  |  |  |
| Ac-LKLLKKPLKLLK-NH2 | > 80 µM | > 80 µM | > 80 µM | > 160 µM | 18 min |  |  |  |  |  |  |  |  |  |
| Ac-LLKLLKKPLKLLK-NH2 | > 80 µM | > 80 µM | > 80 µM | > 160 µM | 19.8 min |  |  |  |  |  |  |  |  |  |
